This note sets out measurements from patent US20140005163A1 (NOVARTIS AG, priority 2010, published 2014).

The subject of assay [1] is PKB Ser473 phosphorylation in Rat1-myr-HA-p110 beta cells. Description: Reverse protein array assay, PKB Ser473 phosphorylation in Rat1-myr-p110 beta cells. The note with it: 0.5 h, pAkt Ser473, 30 minutes incubation, read-out: p-PKB IC50. Type of assay: cell-based. An outline of the steps:
(§1)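 Measured: PKB Ser473 phosphorylation by reverse protein array in Rat1 cells expressing myr-HA-p110 alpha, beta or delta, after 30 min compound treatment at 37 °C with 0.2% DMSO vehicle.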

Assay [2] has as its system PKB Ser473 phosphorylation in Rat1-myr-HA-p110 delta cells. Kind of assay: Reverse protein array assay, PKB Ser473 phosphorylation in Rat1-myr-p110 delta cells. Type of assay: cell-based. As to conditions: read-out: p-PKB IC50. An outline of the steps:
as §1

The subject of assay [3] is PKB Ser473 phosphorylation in Rat1-myr-HA-p110 alpha cells. Kind of assay: Reverse protein array assay, PKB Ser473 phosphorylation in Rat1-myr-p110 alpha cells. The note with it: 0.5 h, pAkt Ser473, 30 minutes compound incubation, read-out: p-PKB IC50. Type of assay: cell-based. The method in brief:
as §1

Assay [4] deals with T1, PI3K alpha (Homo sapiens, UniProt P42336).
T1 construct: p85(iSH2) fusion partner (see partner chain) (N); His tag (C); made in house; host or cells: baculovirus; Tn5 (Trichoplusia ni) or TiniPro insect cells
Description: PI3K alpha kinase assay (Kinase-Glo luminescence). Type of assay: biochemical. The method in brief: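 Read-out: Kinase-Glo luminescence of ATP left after 60 min at room temperature. Conditions: 10 nM PI3Kα (EMV B1075), 1 μM ATP, 10 μg/mL PI substrate, Tris pH 7.5 buffer with MgCl2, NaCl, CHAPS and DTT. IC50s fitted with a four-parameter logistic model.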

For assay [5], the target named is T2, PI3K beta (Homo sapiens, UniProt P42338).
T2 construct: for the full-length p110-b subunit are generated and fused by overlapping PCR; p85(iSH2) fusion partner (see partner chain) (N); His tag (C); made in house; host or cells: baculovirus; Tn5 (Trichoplusia ni) or TiniPro insect cells
Kind of assay: PI3K beta kinase assay (Kinase-Glo luminescence). Type of assay: biochemical. The method in brief:
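Enzyme: BV949 p85(iSH2)-Gly linker-p110β FL-His, 25 nM. Substrate: PI 10 μg/mL. ATP: 1 μM, added to start. Buffer: Tris pH 7.5 10 mM, MgCl2 3 mM, NaCl 50 mM, CHAPS 0.05%, DTT 1 mM. RT, 60 min. Readout: Kinase-Glo. IC50 by 4-parameter fit.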

T2 sequence (P42338 with tags, fused parts or gaps limits assumed): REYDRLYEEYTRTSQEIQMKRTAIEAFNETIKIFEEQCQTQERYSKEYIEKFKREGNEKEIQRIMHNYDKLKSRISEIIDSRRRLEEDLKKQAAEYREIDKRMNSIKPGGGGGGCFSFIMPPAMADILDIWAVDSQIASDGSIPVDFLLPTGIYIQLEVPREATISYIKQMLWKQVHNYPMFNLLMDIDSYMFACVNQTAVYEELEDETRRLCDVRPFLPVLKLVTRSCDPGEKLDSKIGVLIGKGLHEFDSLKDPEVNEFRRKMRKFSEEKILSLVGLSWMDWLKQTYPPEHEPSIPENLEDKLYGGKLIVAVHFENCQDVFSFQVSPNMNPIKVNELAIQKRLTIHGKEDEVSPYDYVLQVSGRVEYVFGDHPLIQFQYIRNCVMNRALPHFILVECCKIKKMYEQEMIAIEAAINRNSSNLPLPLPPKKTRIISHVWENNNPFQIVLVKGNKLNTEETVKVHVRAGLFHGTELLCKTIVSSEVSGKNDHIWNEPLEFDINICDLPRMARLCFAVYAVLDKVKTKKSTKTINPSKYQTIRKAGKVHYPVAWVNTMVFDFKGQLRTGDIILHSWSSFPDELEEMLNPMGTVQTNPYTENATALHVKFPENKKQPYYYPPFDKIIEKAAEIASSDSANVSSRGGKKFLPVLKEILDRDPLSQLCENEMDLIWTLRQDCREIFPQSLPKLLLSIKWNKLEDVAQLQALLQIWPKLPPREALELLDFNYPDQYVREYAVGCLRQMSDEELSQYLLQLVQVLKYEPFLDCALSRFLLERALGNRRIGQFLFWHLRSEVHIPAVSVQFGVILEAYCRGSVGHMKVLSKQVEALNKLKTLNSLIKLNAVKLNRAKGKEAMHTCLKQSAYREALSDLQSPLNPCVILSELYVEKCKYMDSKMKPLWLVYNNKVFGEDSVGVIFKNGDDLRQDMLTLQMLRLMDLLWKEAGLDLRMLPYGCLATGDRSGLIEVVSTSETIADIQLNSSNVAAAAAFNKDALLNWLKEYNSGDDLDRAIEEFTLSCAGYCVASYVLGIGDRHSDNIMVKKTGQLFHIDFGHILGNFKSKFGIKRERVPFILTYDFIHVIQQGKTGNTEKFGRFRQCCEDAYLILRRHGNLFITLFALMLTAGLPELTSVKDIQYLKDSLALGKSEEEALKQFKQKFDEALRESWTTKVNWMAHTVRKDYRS
T1 sequence (P42336 with tags, fused parts or gaps limits assumed): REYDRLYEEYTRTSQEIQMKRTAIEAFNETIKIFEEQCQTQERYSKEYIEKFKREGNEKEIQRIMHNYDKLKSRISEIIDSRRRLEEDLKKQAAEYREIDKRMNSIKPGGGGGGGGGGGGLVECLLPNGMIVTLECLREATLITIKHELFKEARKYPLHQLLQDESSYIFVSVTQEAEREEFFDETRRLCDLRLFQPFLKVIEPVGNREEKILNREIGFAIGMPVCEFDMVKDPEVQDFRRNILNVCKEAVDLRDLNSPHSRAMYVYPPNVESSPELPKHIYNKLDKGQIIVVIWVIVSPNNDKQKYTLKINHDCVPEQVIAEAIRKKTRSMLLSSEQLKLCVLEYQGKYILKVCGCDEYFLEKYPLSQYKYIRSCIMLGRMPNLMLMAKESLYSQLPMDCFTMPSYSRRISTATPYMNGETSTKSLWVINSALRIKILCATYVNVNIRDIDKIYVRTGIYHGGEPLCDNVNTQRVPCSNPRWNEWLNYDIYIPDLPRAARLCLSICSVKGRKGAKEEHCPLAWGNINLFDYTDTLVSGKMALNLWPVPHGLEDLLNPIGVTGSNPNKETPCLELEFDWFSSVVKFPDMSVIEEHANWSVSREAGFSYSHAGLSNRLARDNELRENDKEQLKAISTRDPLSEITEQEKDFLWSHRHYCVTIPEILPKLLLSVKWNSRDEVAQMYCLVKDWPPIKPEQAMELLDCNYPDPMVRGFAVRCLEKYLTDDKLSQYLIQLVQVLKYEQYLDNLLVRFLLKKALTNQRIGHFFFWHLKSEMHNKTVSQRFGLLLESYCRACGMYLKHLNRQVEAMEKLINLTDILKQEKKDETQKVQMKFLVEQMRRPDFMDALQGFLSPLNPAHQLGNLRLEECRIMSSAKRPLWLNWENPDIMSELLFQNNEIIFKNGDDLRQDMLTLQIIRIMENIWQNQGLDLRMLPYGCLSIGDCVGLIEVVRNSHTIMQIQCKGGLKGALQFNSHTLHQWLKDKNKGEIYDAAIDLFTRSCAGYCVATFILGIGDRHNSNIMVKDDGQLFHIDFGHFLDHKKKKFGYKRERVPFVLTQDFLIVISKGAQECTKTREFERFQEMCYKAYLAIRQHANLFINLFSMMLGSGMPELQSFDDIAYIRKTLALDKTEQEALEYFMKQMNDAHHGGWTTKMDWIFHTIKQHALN

On to `Cc1nn(C(C)C)cc1-n1c(=O)n(C)c2cnc3ccc(-c4ccc(C(N)=O)nc4)cc3c21` [Example 112, 5-[1-(1-Isopropyl-3-methyl-1H-pyrazol-4-yl)-3-methyl-2-oxo-2,3-dihydro-1H-imidazo[4,5-c]quinolin-8-yl]-pyridine-2-carboxylic acid amide], for which the IC50 in assay [1] amounted to 73 nM; in assay [2], 69 nM; in assay [3], 24 nM; in assay [4] it was 79 nM; in assay [5] it was 391 nM.
As to `CCNc1ncc(-c2ccc3ncc4c(c3c2)n(-c2c(C)nn(C)c2C)c(=O)n4C)cc1C(F)(F)F` [Example 145.1, 8-(6-Ethylamino-5-trifluoromethyl-pyridin-3-yl)-3-methyl-1-(1,3,5-trimethyl-1H-pyrazol-4-yl)-1,3-dihydro-imidazo[4,5-c]quinolin-2-one], the IC50 in assay [1] amounted to 168 nM; in assay [2], 280 nM; in assay [3], 69 nM; in assay [4] it was 42 nM; in assay [5] it was 162 nM.
For `Cc1nn(C)cc1-n1c(=O)n(C)c2cnc3ccc(-c4cnc(Cl)c(NS(C)(=O)=O)c4)cc3c21` [Example 223, N-{2-Chloro-5-[1-(1,3-dimethyl-1H-pyrazol-4-yl)-3-methyl-2-oxo-2,3-dihydro-1H-imidazo[4,5-c]quinolin-8-yl]-pyridin-3-yl}-methanesulfonamide] the same measures were 24 nM, 103 nM, 11 nM, 3 nM and 7 nM.
For `Cc1nn(C)cc1-n1c(=O)n(C)c2cnc3ccc(-c4ccc(N5CCN(C)CC5)nc4)cc3c21` [Example 96, 1-(1,3-Dimethyl-1H-pyrazol-4-yl)-3-methyl-8-[6-(4-methyl-piperazin-1-yl)-pyridin-3-yl]-1,3-dihydro-imidazo[4,5-c]quinolin-2-one], in that order: 37 nM, 60 nM, 12 nM, 47 nM and 544 nM.
With `CNc1ncc(-c2ccc3ncc4c(c3c2)n(-c2cn(C(C)C)nc2C)c(=O)n4C)cc1Cl` [Example 146.3, 8-(5-Chloro-6-methylamino-pyridin-3-yl)-1-(1-isopropyl-3-methyl-1H-pyrazol-4-yl)-3-methyl-1,3-dihydro-imidazo[4,5-c]quinolin-2-one], the IC50 in assay [1] was 119 nM; in assay [2], 24 nM; in assay [3], 20 nM; in assay [4], 50 nM; in assay [5] it was 207 nM.
As for `CNC(=O)c1ccc(-c2ccc3ncc4c(c3c2)n(-c2cn(C)nc2Cl)c(=O)n4C)cc1` [Example 43.2, 4-[1-(3-Chloro-1-methyl-1H-pyrazol-4-yl)-3-methyl-2-oxo-2,3-dihydro-1H-imidazol[4,5-c]quinolin-8-yl]-N-methyl-benzamide], the IC50 is below 5 nM in assay [1]; 12 nM in assay [2]; 6 nM in assay [3]; 8 nM in assay [4]; 56 nM in assay [5].
`Cc1noc(C)c1-n1c(=O)n(C)c2cnc3ccc(-c4cnc(N)c(C(F)(F)F)c4)cc3c21` [Example 25.5, 8-(6-Amino-5-trifluoromethyl-pyridin-3-yl)-1-(3,5-dimethyl-isoxazol-4-yl)-3-methyl-1,3-dihydro-imidazo[4,5-c]quinolin-2-one]: the IC50 in assay [1] is 115 nM; in assay [2] it was 157 nM; in assay [3], 97 nM; in assay [4] it was 30 nM; in assay [5] it was 30 nM.
As to `COc1cc(-c2ccc3ncc4c(c3c2)n(-c2cn(C)nc2Cl)c(=O)n4C)cnc1CO` [Example 194.2, 1-(3-chloro-1-methyl-1H-pyrazol-4-yl)-8-(6-hydroxymethyl-5-methoxy-pyridin-3-yl)-3-methyl-1,3-dihydro-imidazo[4,5-c]quinolin-2-one], the IC50 in assay [1] was determined as 10 nM; in assay [2], 27 nM; in assay [3] it was 9 nM; in assay [4], 4 nM; in assay [5] it was 6 nM.
For `COCc1cc(-c2ccc3ncc4c(c3c2)n(-c2cn(C)nc2Cl)c(=O)n4C)cnc1OC` [Example 201, 1-(3-Chloro-1-methyl-1H-pyrazol-4-yl)-8-(6-methoxy-5-methoxymethyl-pyridin-3-yl)-3-methyl-1,3-dihydro-imidazo[4,5-c]quinolin-2-one] the same measures were 19 nM, 10 nM, 12 nM, 4 nM and 6 nM.
In the case of `COc1ccc(-c2ccc3ncc4c(c3c2)n(-c2cnn(C)c2C)c(=O)n4C)cn1` [Example 2.9, 1-(1,5-Dimethyl-1H-pyrazol-4-yl)-8-(6-methoxy-pyridin-3-yl)-3-methyl-1,3-dihydro-imidazo[4,5-c]quinolin-2-one], the concentration for half-maximal inhibition (IC50) in assay [1] was determined as 141 nM; in assay [2], 165 nM; in assay [3] it was 44 nM; in assay [4], 43 nM; in assay [5] it was 166 nM.
`Cc1ncc(-c2ccc3ncc4c(c3c2)n(-c2cn(C)nc2C)c(=O)n4C)cc1N` [Example 88.2, 8-(5-Amino-6-methyl-pyridin-3-yl)-1-(1,3-dimethyl-1H-pyrazol-4-yl)-3-methyl-1,3-dihydro-imidazo[4,5-c]quinolin-2-one]: the IC50 in assay [1] came out at 28 nM; in assay [2], 59 nM; in assay [3] it was 24 nM; in assay [4], 17 nM; in assay [5] it was 68 nM.
For `CCNc1cncc(-c2ccc3ncc4c(c3c2)n(-c2cn(C)nc2C)c(=O)n4C)c1` [Example 122, 1-(1,3-Dimethyl-1H-pyrazol-4-yl)-8-(5-ethylamino-pyridin-3-yl)-3-methyl-1,3-dihydro-imidazo[4,5-c]quinolin-2-one] the same measures were 22 nM, 56 nM, below 5 nM, 14 nM and 22 nM.
Consider `Cc1c(-n2c(=O)n(C)c3cnc4ccc(-c5ccc(N(C)C)nc5)cc4c32)cnn1C` [Example 4.4, 8-(6-Dimethylamino-pyridin-3-yl)-1-(1,5-dimethyl-1H-pyrazol-4-yl)-3-methyl-1,3-dihydro-imidazo[4,5-c]quinolin-2-one], for which the IC50 came to 110 nM in assay [1]; 155 nM in assay [2]; 53 nM in assay [3]; 45 nM in assay [4]; 733 nM in assay [5].
For `Cc1nn(C)cc1-n1c(=O)n(C)c2cnc3ccc(-c4cnc(F)c(N(C)C)c4)cc3c21` [Example 151, 8-(5-Dimethylamino-6-fluoro-pyridin-3-yl)-1-(1,3-dimethyl-1H-pyrazol-4-yl)-3-methyl-1,3-dihydro-imidazo[4,5-c]quinolin-2-one], in that order: 22 nM, 40 nM, 21 nM, 6 nM and 21 nM.
With `Cc1nn(C)cc1-n1c(=O)n(C)c2cnc3ccc(-c4cnc(N)c(C(=O)NC(C)C)c4)cc3c21` [Example 225, 2-Amino-5-[1-(1,3-dimethyl-1H-pyrazol-4-yl)-3-methyl-2-oxo-2,3-dihydro-1H-imidazo[4,5-c]quinolin-8-yl]-N-isopropyl-nicotinamide], the IC50 is 111 nM in assay [1]; 69 nM in assay [2]; 80 nM in assay [3]; 20 nM in assay [4]; 44 nM in assay [5].
